Data: PMC7686308, “Overcoming the blood–brain barrier by Annexin A1-binding peptide to target brain tumours” (British Journal of Cancer, 2020)
Entries after “also recorded” stand apart in the source; their conditions may differ. Peptide text beside a SMILES is read from it. * marks the point of attachment. X1 = CCc1c2c(nc3ccc(OC(=O)C4CCC(CNC(=O)C5CCC(CN6C(=O)CC(*)C6=O)CC5)CC4)cc13)-c1cc3c(c(=O)n1C2)COC(=O)[C@]3(O)CC

Legend:
LL/2-Luc cells = test: LL/2-Luc rechallenge of brain tumour-recovered mice; type: in vivo, mouse (C57BL/6); details: mice recovered from brain B16-Luc tumours after treatment; 4 days after s.c. injection
Experimental: (§1) The presence of tumour-infiltrating lymphocytes, especially CD8^+ cytotoxic T cells, is correlated with better prognosis of various cancers.[32],[33] To assess possible involvement of cytotoxic T cells in an antitumour response by host mice, we injected two isogenic cell lines, B16-Luc and LL/2-Luc, into naïve C57BL/6 mice and also into C57BL/6 mice that recovered from brain B16-Luc tumours following IF7C(RR)-SN38 treatment. When these cells were injected subcutaneously in a naïve mouse, both lines formed tumours (Fig. 6a, left).
(§2) Fig. 6 Immunological rejection of the cancer cells from the mouse recovered from brain tumour by IF7C(RR)-SN38 therapy. a Growth of two syngeneic cancer lines in naïve and brain tumour-recovered mice 4 days after subcutaneous injection of LL/2-Luc or B16-Luc cells. b Immunohistochemistry with anti-CD8 antibody of B16-Luc cells at subcutaneous injection sites, 20 h after B16-Luc cell injection. Scale bars: 100 μm. c Quantitative analysis of CD8^+ cells in subcutaneous injection sites.

CD8+ T cells = test: CD8+ cell infiltration at B16-Luc injection site (immunohistochemistry); type: in vivo, mouse (C57BL/6); details: recovered C57BL/6 mice; 20 h after B16-Luc s.c. injection (naïve: 0.2 cells/HPF)
Experimental: as §2

[1] = LC-MS/MS analysis of SN38 in brain tumours; type: in vivo, mouse; details: mice intravenously injected with IF7C(RR)-SN38
B16 cells = test: Cytotoxicity on B16 cells (CellTiter Glo); type: cell-based, mouse
Experimental: (§3) Drug concentration (OM) Drug concentration ( nM) […]
(§4) Supplementary Fig 7 . Cytotoxicity of peptide-conjugated SN38, free peptide s and unconjugated SN-38 and irinotecan (CPT-11) on C6 and B16 cells cultured in vitro. Rat glioma C6 and mouse melanoma B16 cells were treated with reagents shown along the top panels at the concentration indicated and cultured for 2 days. Cell viability was determined by a CellTiter Glo (Promega) assay. The IC50 of each reagent was determined using GraphPad Prism program. N.D.: not determined.

B16-Luc brain tumours = test: B16-Luc brain tumour in C57BL/6 mice, Solutol HS15 formulation; type: in vivo, mouse (C57BL/6); details: 2.5 μmoles/kg i.v. daily for 7 days
Experimental: (§5) C6-Luc cells (5 × 10^4 suspended in 2 μl PBS) were injected into C57BL/6 mouse brain striatum using a stereotaxic frame as described previously.[21] Seven days later, mice underwent imaging for luciferase-expressing tumours. To do so, 100 μl luciferin (30 mg/ml PBS) was injected peritoneally. Mice were then anesthetised under isoflurane gas (20 ml/min) supplemented with oxygen (1 ml/min) and placed under a camera equipped with a Xenogen IVIS 200 imager at both the SBP and AIST animal facilities. Photon numbers were measured for 1–10 sec or for 1 min. For the dual-tumour model, C6-Luc cells were similarly injected into the brain of NOD-SCID mice. When a brain tumour became detectable by IVIS imager, C6-Luc cells (2 × 10^5 suspended in 100 μl PBS) were injected subcutaneously into the dorsal flank of the same mice. Photon numbers in brain and subcutaneous tumours were measured using the IVIS imager. The dual-tumour model was also produced using B16-Luc cells in the isogeneic C57BL/6 mouse. B16-Luc cells (5 × 10^4) were injected into brains of 8–10-weeks-old C57BL/6 female mice as described above for C6-Luc cells. When brain tumours became detectable, B16-Luc cells (2 × 10^5 cells) were injected subcutaneously into the dorsal flank of the same mouse.
(§6) IF7C(RR)-SN38 was injected intravenously through the tail vein into tumour-bearing mice once photon number of C6-Luc brain tumour reached 5 × 10^4, which usually occurred after 2 weeks. IF7C(RR)-SN38 (142 μg or 0.0567 μmoles) dissolved in 10 μl dimethylsulfoxide (DMSO) diluted with 100 μl of 50% Cremophore EL in ethanol plus 90 μl PBS was injected intravenously through the tail vein. As the average body weight of a mouse was 18 g, IF7C(RR)-SN38 dose per injection was 3.15 μmoles/kg. For B16-Luc brain tumours, IF7C(RR)-SN38 formulated with Cremophore EL was used at the dosage 7.0 μmoles/kg. Irinotecan (CPT-11), a water soluble SN38 prodrug, was dissolved in PBS and intravenously injected into mice at 50 μmoles /kg. In another set of experiments, brain tumour-bearing mice were treated with IF7C(RR)-SN38 (100 μg or 0.0412 μmoles) dissolved in 10 μl DMSO followed by dilution with 100 μl 10% Solutol HS15 in water. In that case, drug dosage was 2.5 μmoles/kg. Similarly formulated C(RR)-SN38 served as control.
Fig. 5 Therapeutic effect of IF7C(RR)-SN38 formulated with Solutol HS15. a Effect of IF7C(RR)-SN38 on B16-Luc brain tumours in C57BL/6 mice. b Effect of IF7C(RR)-SN38 on C6-Luc brain tumours in nude mice. In these experiments, drug dosage was 2.5 μmoles/kg each for IF7C(RR)-SN38 or C(RR)-SN38 (control), diluted with 10% Solutol HS15 in water and administered daily for 7 days. Note that the B16 brain tumours continued shrinking after ceasing administration of IF7C(RR)-SN38 in C57BL/6 mice. In each a and b, error bars denote means ± SEM. Statistical analysis was assessed by Student’s t-test.

C6-Luc brain tumours = test: C6-Luc brain tumour in nude mice, Solutol HS15 formulation; type: in vivo, rat tumour cells in nude mice; details: 2.5 μmoles/kg i.v. daily for 7 days, 10% Solutol HS15
Experimental: as §5, with “When brain tumours became detectable, B16-Luc cells (2 × 10^5 cells) were injected subcutaneously into the dorsal flank of the same mouse.” left out
Fig. 5 Therapeutic effect of IF7C(RR)-SN38 formulated with Solutol HS15. a Effect of IF7C(RR)-SN38 on B16-Luc brain tumours in C57BL/6 mice. b Effect of IF7C(RR)-SN38 on C6-Luc brain tumours in nude mice. […] Statistical analysis was assessed by Student’s t-test.

[2] = tested on: C6-Luc brain and subcutaneous tumours; test: C6-Luc dual-tumour model in NOD-SCID mice; type: in vivo, rat tumour cells in NOD-SCID mice
Experimental: as §5, with “same mouse. […]” for “same mouse.”
Next, to compare drug dosages required to suppress growth of brain versus subcutaneous tumours in vivo, we undertook experiments with a dual-tumour model, in which a single SCID mouse received C6-Luc cells both in brain and under the skin (Fig. 4a, Supplementary Fig. 8A). Mice were then injected intravenously with IF7C(RR)-SN38 and tumour growth in both locations was assessed in vivo by photon number.
Fig. 4 Effect of IF7C(RR)-SN38 on the dual-tumour model mice. a Dual-tumour model was established with C6-Luc cells in NOD-SCID mice. […] Growth of B16-Luc cells were monitored as in a similar manner as in a, followed by intravenous injection with either IF7C(RR)-SN38 (7.0 μmoles/kg), irinotecan (CPT-11) (50 μmoles/kg) or buffer control daily for 6 days. […] Statistical analysis was assessed by Student’s t-test.

[3] = tested on: B16-Luc brain and subcutaneous tumours; test: B16-Luc dual-tumour model in C57BL/6 mice; type: in vivo, mouse (C57BL/6)
Experimental: as §5, §6
Fig. 4 Effect of IF7C(RR)-SN38 on the dual-tumour model mice. a Dual-tumour model was established with C6-Luc cells in NOD-SCID mice. C6-Luc cells were grown both in brain and under the skin of mice. When tumours in brain and subcutaneous grew by showing photon number more than 2×10^4, IF7C(RR)-SN38 (3.15 μmoles/kg) was injected intravenously daily through tail vein for 9 days. b Effect of IF7C(RR)-SN38 on a dual-tumour model with B16-Luc melanoma cells in C57BL/6 mice. Growth of B16-Luc cells were monitored as in a similar manner as in a, followed by intravenous injection with either IF7C(RR)-SN38 (7.0 μmoles/kg), irinotecan (CPT-11) (50 μmoles/kg) or buffer control daily for 6 days. The drug was diluted in Cremophore EL. In each a and b, error bars denote means ± SEM. Statistical analysis was assessed by Student’s t-test.

C6 cells = test: Cytotoxicity on C6 cells (CellTiter Glo); type: cell-based, rat
Experimental: as §3, §4

B16-Luc cells = test: B16-Luc rechallenge of brain tumour-recovered mice; type: in vivo, mouse (C57BL/6); details: mice recovered from brain B16-Luc tumours after treatment; 4 days after s.c. injection
Experimental: as §1, §2

[4] = 3.15 μmoles/kg i.v. daily, 9 days, Cremophore EL
[5] = 7.0 μmoles/kg i.v. daily, 6 days, Cremophore EL

## CCc1c2c(nc3ccc(OC(=O)C4CCC(CNC(=O)C5CCC(CN6C(=O)CC(SC[C@H](NC(=O)[C@H](CCCNC(=N)N)NC(=O)[C@H](CCC(N)=O)NC(=O)[C@H](Cc7c[nH]c8ccccc78)NC(=O)[C@H](CC(C)C)NC(=O)[C@H](CC(C)C)NC(=O)[C@H](Cc7ccccc7)NC(=O)[C@@H](N)[C@@H](C)CC)C(=O)N[C@@H](CCCNC(=N)N)C(=O)N[C@@H](CCCNC(=N)N)C(=O)O)C6=O)CC5)CC4)cc13)-c1cc3c(c(=O)n1C2)COC(=O)[C@]3(O)CC (stereo partly drawn) [IF7C(RR)-SN38] (H-IFLLWQRC(X1)RR-OH; N-terminus and C-terminus assumed)
LL/2-Luc cells
  LL/2-Luc tumour formation after s.c. challenge: LL/2-Luc tumours grew
CD8+ T cells
  CD8+ cell infiltration at injection sites: 92.2 cells/HPF
[1]
  SN38 in brain tumours: did not detect SN38 in brain tumours
B16 cells; B16, 2 days, CellTiter Glo, GraphPad Prism
  logIC50: 2.171
B16 cells; in vitro, B16 cells
  cytotoxic activity compared with free SN38: comparable to those of free SN38
B16-Luc brain tumours; 10% Solutol HS15
  B16-Luc brain tumour response during the first week: tumours began shrinking during the first week of daily injections
  B16-Luc brain tumour, final outcome: completely disappeared; also recorded: complete disappearance of brain tumours
  survival after cessation of treatment without signs of B16-Luc cell growth: more than 3 months
B16-Luc brain tumours; 10% Solutol HS15 in water
  therapeutic effect with Solutol HS15 relative to Cremophore EL: significantly improved
B16-Luc brain tumours; then no drug
  B16-Luc brain tumour response, second week without injection: continued shrinking during the second week without drug injection
C6-Luc brain tumours
  C6-Luc brain tumour growth: suppressed the tumour growth
  complete disappearance of C6-Luc brain tumours: did not promote complete disappearance of brain tumours
[2]; [4]
  brain tumour growth (photon number): significantly suppressed tumour growth relative to buffer controls
  subcutaneous tumour growth (photon number): significantly suppressed tumour growth relative to buffer controls
[2]; 3.15 μmoles/kg, C6-Luc, NOD-SCID
  brain versus subcutaneous tumour effect: effect of IF7C(RR)-SN38 on brain tumours is comparable to that on subcutaneous tumours
[3]; [5]
  brain tumour growth (photon number): significantly antagonised growth of both brain and subcutaneous tumours compared to buffer controls
  subcutaneous tumour growth (photon number): significantly antagonised growth of both brain and subcutaneous tumours compared to buffer controls
[3]; 7.0 μmoles/kg, B16-Luc, C57BL/6
  brain versus subcutaneous tumour effect: effect of IF7C(RR)-SN38 on brain tumours is comparable to that on subcutaneous tumours
C6 cells; C6, 2 days, CellTiter Glo, GraphPad Prism
  logIC50: 1.812
C6 cells; in vitro, C6 cells
  cytotoxic activity compared with free SN38: comparable to those of free SN38
B16-Luc cells
  B16-Luc tumour formation after s.c. rechallenge: B16-Luc tumours did not appear
